These are literature values, as cited in patent publication US20110200683A1, “Hydrogen peroxide solution producing first aid substance, packaging, and treatment” (Piper Medical, Inc, priority 2010, published 2011).

For data set [1] the following is noted: temperatures above 50° C.
The conditions of data set [2]: in water.

On to `NC(N)=O.OO` [percarbamide], for which the stability entry in data set [1] is recorded as “relatively stable”. In data set [2], the “solubility sufficient to create a hydrogen peroxide concentration” value is at least 3%.
